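Five compound concentrations were applied to cells in 96-well plates for 48 hours; endpoints were derived by simple linear interpolation of the resulting dose-response curve. TGI marks complete inhibition of growth.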
How the values were obtained:
Assay in all cases: NCI tumour cell line growth inhibition, 48 h
HCT-116 colon = test system: HCT-116 colon
HS 578T breast = test system: HS 578T breast
TK-10 renal = test system: TK-10 renal
CCRF-CEM leukemia = test system: CCRF-CEM leukemia
UO-31 renal = test system: UO-31 renal
OVCAR-5 ovarian = test system: OVCAR-5 ovarian
UACC-62 melanoma = test system: UACC-62 melanoma
MALME-3M melanoma = test system: MALME-3M melanoma
NCI/ADR-RES ovarian = test system: NCI/ADR-RES ovarian
OVCAR-3 ovarian = test system: OVCAR-3 ovarian
NCI-H460 lung = test system: NCI-H460 lung
BT-549 breast = test system: BT-549 breast
SNB-75 CNS = test system: SNB-75 CNS
T-47D breast = test system: T-47D breast
SK-MEL-5 melanoma = test system: SK-MEL-5 melanoma
MDA-N = test system: MDA-N
OVCAR-4 ovarian = test system: OVCAR-4 ovarian
SF-268 CNS = test system: SF-268 CNS
K-562 leukemia = test system: K-562 leukemia
MDA-MB-231 breast = test system: MDA-MB-231 breast
A498 renal = test system: A498 renal
OVCAR-8 ovarian = test system: OVCAR-8 ovarian
DU-145 prostate = test system: DU-145 prostate
A549 NSCLC = test system: A549 NSCLC
HT29 colon = test system: HT29 colon
M14 melanoma = test system: M14 melanoma
HOP-62 NSCLC = test system: HOP-62 NSCLC
UACC-257 melanoma = test system: UACC-257 melanoma
SR leukemia = test system: SR leukemia
ACHN renal = test system: ACHN renal
HL-60(TB) leukemia = test system: HL-60(TB) leukemia
SK-MEL-2 melanoma = test system: SK-MEL-2 melanoma
786-0 renal = test system: 786-0 renal
RXF 393 renal = test system: RXF 393 renal
U251 CNS = test system: U251 CNS
HCT-15 colon = test system: HCT-15 colon
SW-620 colon = test system: SW-620 colon
SF-539 CNS = test system: SF-539 CNS
KM12 colon = test system: KM12 colon
MCF7 breast = test system: MCF7 breast
NCI-H226 lung = test system: NCI-H226 lung
SN12C renal = test system: SN12C renal
SK-OV-3 ovarian = test system: SK-OV-3 ovarian
SK-MEL-28 melanoma = test system: SK-MEL-28 melanoma
NCI-H23 lung = test system: NCI-H23 lung
EKVX NSCLC = test system: EKVX NSCLC
CAKI-1 renal = test system: CAKI-1 renal
SF-295 CNS = test system: SF-295 CNS
MDA-MB-435 = test system: MDA-MB-435
COLO 205 colon = test system: COLO 205 colon
IGROV1 ovarian = test system: IGROV1 ovarian
LOX IMVI melanoma = test system: LOX IMVI melanoma
PC-3 prostate = test system: PC-3 prostate
MOLT-4 leukemia = test system: MOLT-4 leukemia
HOP-92 NSCLC = test system: HOP-92 NSCLC
NCI-H522 lung = test system: NCI-H522 lung
RPMI-8226 leukemia = test system: RPMI-8226 leukemia
SNB-19 CNS = test system: SNB-19 CNS

Q: What does the source list for CCOC(=O)O/C(=C\c1ccc(OC)cc1)c1c(OC(=O)OCC)n(C(=O)OCC)c2ccccc12?
A: TGI (HCT-116 colon): > 100 µM; TGI (HS 578T breast): > 100 µM; TGI (TK-10 renal): 93.7 µM; TGI (CCRF-CEM leukemia): > 100 µM; TGI (UO-31 renal): > 100 µM; TGI (OVCAR-5 ovarian): > 100 µM; TGI (UACC-62 melanoma): > 100 µM; TGI (MALME-3M melanoma): > 100 µM; TGI (NCI/ADR-RES ovarian): > 100 µM; TGI (OVCAR-3 ovarian): > 100 µM; TGI (NCI-H460 lung): 30.3 µM; TGI (BT-549 breast): > 100 µM; TGI (SNB-75 CNS): > 100 µM; TGI (T-47D breast): > 100 µM; TGI (SK-MEL-5 melanoma): > 100 µM; TGI (MDA-N): > 100 µM; TGI (OVCAR-4 ovarian): > 100 µM; TGI (SF-268 CNS): > 100 µM; TGI (K-562 leukemia): > 100 µM; TGI (MDA-MB-231 breast): 77.6 µM; TGI (A498 renal): 27.3 µM; TGI (OVCAR-8 ovarian): > 100 µM; TGI (DU-145 prostate): > 100 µM; TGI (A549 NSCLC): > 100 µM; TGI (HT29 colon): > 100 µM; TGI (M14 melanoma): > 100 µM; TGI (HOP-62 NSCLC): > 100 µM; TGI (UACC-257 melanoma): > 100 µM; TGI (SR leukemia): > 100 µM; TGI (ACHN renal): > 100 µM; TGI (HL-60(TB) leukemia): > 100 µM; TGI (SK-MEL-2 melanoma): > 100 µM; TGI (786-0 renal): > 100 µM; TGI (RXF 393 renal): 67.9 µM; TGI (U251 CNS): > 100 µM; TGI (HCT-15 colon): > 100 µM; TGI (SW-620 colon): > 100 µM; TGI (SF-539 CNS): > 100 µM; TGI (KM12 colon): > 100 µM; TGI (MCF7 breast): > 100 µM; TGI (NCI-H226 lung): > 100 µM; TGI (SN12C renal): > 100 µM; TGI (SK-OV-3 ovarian): 99.7 µM; TGI (SK-MEL-28 melanoma): > 100 µM; TGI (NCI-H23 lung): > 100 µM; TGI (EKVX NSCLC): > 100 µM; TGI (CAKI-1 renal): > 100 µM; TGI (SF-295 CNS): > 100 µM; TGI (MDA-MB-435): > 100 µM; TGI (COLO 205 colon): > 100 µM; TGI (IGROV1 ovarian): > 100 µM; TGI (LOX IMVI melanoma): > 100 µM; TGI (PC-3 prostate): > 100 µM

Q: Which results are given for CC(C)(C)c1ccc(O)c(CN(Cc2c(O)ccc3ccccc23)C2CCCCC2)c1?
A: TGI (HCT-116 colon): 30.9 µM; TGI (HS 578T breast): 84.3 µM; TGI (TK-10 renal): 29.2 µM; TGI (CCRF-CEM leukemia): > 100 µM; TGI (UO-31 renal): 29.2 µM; TGI (OVCAR-5 ovarian): 32.4 µM; TGI (UACC-62 melanoma): 30.1 µM; TGI (MALME-3M melanoma): 31.9 µM; TGI (NCI/ADR-RES ovarian): 32.4 µM; TGI (OVCAR-3 ovarian): 34.3 µM; TGI (NCI-H460 lung): 30.4 µM; TGI (BT-549 breast): 34.4 µM; TGI (SNB-75 CNS): 32.3 µM; TGI (T-47D breast): 44.3 µM; TGI (SK-MEL-5 melanoma): 30.2 µM; TGI (MDA-N): 29.3 µM; TGI (OVCAR-4 ovarian): 58.6 µM; TGI (SF-268 CNS): 30.9 µM; TGI (K-562 leukemia): 52.1 µM; TGI (MDA-MB-231 breast): 30.6 µM; TGI (A498 renal): 37.6 µM; TGI (OVCAR-8 ovarian): 31.8 µM; TGI (MOLT-4 leukemia): 54.9 µM; TGI (DU-145 prostate): 60.9 µM; TGI (A549 NSCLC): 48.9 µM; TGI (HT29 colon): 31.6 µM; TGI (M14 melanoma): 25.7 µM; TGI (HOP-62 NSCLC): 36.9 µM; TGI (UACC-257 melanoma): 29.3 µM; TGI (HOP-92 NSCLC): 30.7 µM; TGI (SR leukemia): 52.2 µM; TGI (ACHN renal): 33.3 µM; TGI (SK-MEL-2 melanoma): 31.3 µM; TGI (786-0 renal): 29.2 µM; TGI (RXF 393 renal): 33.6 µM; TGI (U251 CNS): 29.4 µM; TGI (HCT-15 colon): 31 µM; TGI (SW-620 colon): 85.2 µM; TGI (SF-539 CNS): 30.8 µM; TGI (KM12 colon): 39.6 µM; TGI (MCF7 breast): 31.9 µM; TGI (SN12C renal): 33.1 µM; TGI (SK-OV-3 ovarian): 58.6 µM; TGI (SK-MEL-28 melanoma): 46 µM; TGI (NCI-H23 lung): 35.3 µM; TGI (EKVX NSCLC): 30 µM; TGI (CAKI-1 renal): 32.2 µM; TGI (SF-295 CNS): 38.1 µM; TGI (MDA-MB-435): 52.6 µM; TGI (COLO 205 colon): 29.3 µM; TGI (NCI-H522 lung): 28.9 µM; TGI (IGROV1 ovarian): 32.7 µM; TGI (LOX IMVI melanoma): 23.9 µM; TGI (PC-3 prostate): 28.5 µM; TGI (RPMI-8226 leukemia): > 100 µM; TGI (SNB-19 CNS): 43.9 µM
